# Experimental data published in US20250002455A1, “NEW N-PHENYLPYRROLAMIDE INHIBITORS OF DNA GYRASE AND TOPOISOMERASE IV WITH ANTIBACTERIAL ACTIVITY” (priority 2020, published 2025).
# Read-outs that look alike come from different tables or passages of the source.
# How the values were obtained:
# E. coli DNA gyrase = biological target: T1, E. coli DNA gyrase (Escherichia coli, UniProt P0AES6); test: biochemical; conditions: E. coli DNA gyrase; for IC50: read-out: IC50; for remaining activity at 1 µM: 1 μM compound
# T1 construct: purchased Inspiralis
# Method in brief: (§1)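 Triplex-capture format: plasmid bound to a biotinylated oligonucleotide on streptavidin plates after reaction at 37 °C for 30 min. The reaction was stopped with TF buffer (50 mM NaOAc pH 5.0, 50 mM NaCl, 50 mM MgCl2), and captured DNA was stained with SybrGOLD. IC50 values are the mean of three independent measurements.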
# S. aureus DNA gyrase = biological target: T2, S. aureus DNA gyrase (Staphylococcus aureus, UniProt P0A0K8); test: biochemical; conditions: S. aureus DNA gyrase; for remaining activity at 10 µM: 10 μM compound, read-out: RA (residual activity of the enzyme); for IC50: read-out: IC50
# T2 construct: purchased Inspiralis
# Method in brief: as §1
# [1] = test system: A. baumannii (ATCC 19606); test: Microbroth dilution MIC (CLSI); type: cell-based; conditions: Acinetobacter baumannii, ATCC19606
# Method in brief: (§2)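 MIC = lowest drug concentration with no visible growth, read in a CLSI broth microdilution format; two-fold serial dilutions prepared in 100% DMSO.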
# E. coli ATCC 25922 = test: Microbroth dilution MIC (CLSI); type: cell-based; conditions: Escherichia coli, ATCC25922; E. coli ATCC 25922; read-out: MIC
# Method in brief: as §2
# E. faecium (ATCC 35667) = test: Microbroth dilution MIC (CLSI); type: cell-based; conditions: Enterococcus faecium, ATCC35667
# Method in brief: as §2
# [2] = test system: K. pneumoniae (ATCC 700603); test: Microbroth dilution MIC (CLSI); type: cell-based; conditions: Klebsiella pneumoniae, ATCC700603
# Method in brief: as §2
# P. aeruginosa ATCC 27853 = test: Microbroth dilution MIC (CLSI); type: cell-based; conditions: Pseudomonas aeruginosa, ATCC27853; P. aeruginosa ATCC 27853; read-out: MIC
# Method in brief: as §2
# S. aureus ATCC 29213 = test: Microbroth dilution MIC (CLSI); type: cell-based; conditions: Staphylococcus aureus, ATCC29213; S. aureus ATCC 29213; read-out: MIC
# Method in brief: as §2
# [3] = test system: E. aerogenes (ATCC 13408); test: Microbroth dilution MIC (CLSI); type: cell-based, Enterobacter aerogenes; conditions: Klebsiella aerogenes, ATCC13408
# Experimental: The chemical entities described in the present invention were assessed for their antimicrobial activity using a microbroth dilution assay as recommended by the CLSI (Methods for Dilution Antimicrobial Susceptibility Tests for Bacteria That Grow Aerobically, and Methods for Antimicrobial Susceptibility Testing of Anaerobic Bacteria, Clinical and Laboratory Standards Institute, Document M07-A8, and M11-A8, Wayne, PA 19087, USA, 2012.). Compounds were dissolved by using 100% DMSO. Serial two-fold dilutions of each compound were made by using 100% DMSO as the diluent.
# A library of Gram-negative and Gram-positive microbes and their drug- and multidrug-resistant variants were employed as test organisms. The MIC (minimum inhibitory concentration) was determined as the lowest concentration of an individual drug that lead to no visible growth.
# E. coli topoisomerase IV = biological target: T3, E. coli topoisomerase IV (Escherichia coli, UniProt P20083); test: biochemical; conditions: E. coli topo IV; for remaining activity at 10 µM: 10 μM compound, read-out: RA (residual activity of the enzyme)
# T3 construct: purchased Inspiralis
# Method in brief: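 Supercoiling/relaxation read via biotin-oligonucleotide triplex capture on streptavidin plates; reactions 30 min at 37° C, stopped with TF buffer pH 5.0, plasmid stained with SybrGOLD.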
# [4] = biological target: T4, S. aureus topoisomerase IV (Staphylococcus aureus, UniProt P0C1S7); test: Topoisomerase IV inhibition assay (Inspiralis, streptavidin-coated plates); type: biochemical; conditions: for remaining activity at 10 µM: 10 μM compound
# T4 construct: purchased Inspiralis
# Experimental: Inhibitory activities for compounds of the present invention were determined on E. coli and S. aureus DNA gyrase and topoisomerase IV in an assay from Inspiralis on streptavidin-coated 96-well microtiter plates from Thermo scientific Pierce. […] After washing off the unbound oligonucleotide, the enzyme test was performed. […] Reaction solutions were incubated at 37° C. for 30 min. After that, the TF buffer (50 mM NaOAc with pH 5.0, 50 mM NaCl and 50 mM MgCl2) was added to terminate the enzymatic reaction. After additional incubation for 30 min at rt, during which biotin-oligonucleotide-plasmid triplex was formed, the unbound plasmid was washed off using TF buffer and SybrGOLD in T10 buffer (10 mM Tris HCl with pH 8.0 and 1 mM EDTA) was added. […] Initial screening was done at 100 or 10 nM concentration of inhibitors against E. coli DNA gyrase or 1 μM or 100 nM concentration against S. aureus DNA gyrase and E. coli and S. aureus topo IV. […] GraphPad Prism 6.0 software was used to calculate the IC50 values. The result is given as the average value of three independent measurements. […] Chemoth.
# A. baumannii ATCC 17978 = test: Microbroth dilution MIC (CLSI); type: cell-based; conditions: Acinetobacter baumannii, ATCC17978; A. baumannii ATCC 17978; read-out: MIC
# Method in brief: as §2
# E. faecalis ATCC 29212 = test: Microbroth dilution MIC (CLSI); type: cell-based; conditions: Enterococcus faecalis, ATCC29212; E. faecalis ATCC 29212; read-out: MIC
# Method in brief: as §2
# E. faecium ATCC 700221 = test: Microbroth dilution MIC (CLSI); type: cell-based; conditions: Enterococcus faecium, ATCC700221; E. faecium ATCC 700221; read-out: MIC
# Method in brief: as §2
# [5] = test system: E. spp. cloacae ATCC 13047; test: Microbroth dilution MIC (CLSI); type: cell-based; conditions: Enterobacter cloacae, ATCC13047; E. spp. cloacae ATCC 13047; read-out: MIC
# Method in brief: as §2
# K. pneumoniae ATCC 10031 = test: Microbroth dilution MIC (CLSI); type: cell-based; conditions: Klebsiella pneumoniae, ATCC10031; K. pneumoniae ATCC 10031; read-out: MIC
# Method in brief: as §2
# [6] = test system: S. aureus ATCC 43300 (MRSA); test: Microbroth dilution MIC (CLSI); type: cell-based; conditions: Staphylococcus aureus; S. aureus ATCC 43300 (MRSA); read-out: MIC
# Method in brief: as §2
# [7] = test system: S. aureus ATCC 700699 (VISA); test: Microbroth dilution MIC (CLSI); type: cell-based; conditions: Staphylococcus aureus; S. aureus ATCC 700699 (VISA); read-out: MIC
# Method in brief: as §2
# [8] = A. baumannii (ATCC 19606), read-out: MIC
# [9] = E. faecium (ATCC 35667), read-out: MIC
# [10] = K. pneumoniae (ATCC 700603), read-out: MIC
# [11] = E. aerogenes (ATCC 13408), read-out: MIC
# [12] = S. aureus topo IV, read-out: RA (residual activity of the enzyme)
# [13] = read-out: RA (residual activity of the enzyme)
# T3 sequence (P0AFI2 whole entry): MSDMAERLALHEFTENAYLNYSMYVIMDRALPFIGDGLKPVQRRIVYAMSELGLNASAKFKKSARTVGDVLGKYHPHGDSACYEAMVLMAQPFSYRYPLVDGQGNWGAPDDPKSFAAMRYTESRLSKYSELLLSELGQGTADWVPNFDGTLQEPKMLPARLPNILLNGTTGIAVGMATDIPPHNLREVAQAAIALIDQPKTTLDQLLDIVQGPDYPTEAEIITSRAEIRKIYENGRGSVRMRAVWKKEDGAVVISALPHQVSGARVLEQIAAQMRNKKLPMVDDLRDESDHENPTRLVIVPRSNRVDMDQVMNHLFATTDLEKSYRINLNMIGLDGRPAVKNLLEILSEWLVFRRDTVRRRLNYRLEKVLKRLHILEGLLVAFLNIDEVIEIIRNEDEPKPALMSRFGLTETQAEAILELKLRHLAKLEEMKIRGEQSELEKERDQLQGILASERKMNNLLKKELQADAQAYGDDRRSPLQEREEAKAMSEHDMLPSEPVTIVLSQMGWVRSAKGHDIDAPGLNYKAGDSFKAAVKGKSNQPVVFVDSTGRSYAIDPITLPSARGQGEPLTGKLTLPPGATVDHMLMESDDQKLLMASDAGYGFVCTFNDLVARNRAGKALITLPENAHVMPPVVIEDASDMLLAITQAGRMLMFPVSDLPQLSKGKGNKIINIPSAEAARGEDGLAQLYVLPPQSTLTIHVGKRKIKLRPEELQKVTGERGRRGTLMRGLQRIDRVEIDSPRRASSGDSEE
# T3 sequence (P20083 whole entry): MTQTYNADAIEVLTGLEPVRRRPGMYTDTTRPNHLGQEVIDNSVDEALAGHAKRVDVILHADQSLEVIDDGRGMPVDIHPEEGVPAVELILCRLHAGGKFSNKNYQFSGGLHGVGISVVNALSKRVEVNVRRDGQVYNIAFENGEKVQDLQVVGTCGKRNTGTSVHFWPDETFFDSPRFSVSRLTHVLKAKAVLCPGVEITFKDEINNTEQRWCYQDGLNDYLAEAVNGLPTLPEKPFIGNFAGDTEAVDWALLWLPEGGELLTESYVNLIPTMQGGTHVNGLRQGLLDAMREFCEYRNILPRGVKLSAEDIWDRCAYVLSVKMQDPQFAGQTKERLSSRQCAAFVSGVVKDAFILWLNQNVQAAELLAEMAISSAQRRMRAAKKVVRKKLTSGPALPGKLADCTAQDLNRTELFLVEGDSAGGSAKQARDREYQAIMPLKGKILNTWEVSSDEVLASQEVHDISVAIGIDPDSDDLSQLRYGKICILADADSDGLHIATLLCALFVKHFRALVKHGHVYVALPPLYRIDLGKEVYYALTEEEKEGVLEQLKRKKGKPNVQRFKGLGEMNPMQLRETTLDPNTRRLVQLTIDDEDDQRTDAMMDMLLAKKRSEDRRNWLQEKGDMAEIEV
# T2 sequence (P20831 whole entry): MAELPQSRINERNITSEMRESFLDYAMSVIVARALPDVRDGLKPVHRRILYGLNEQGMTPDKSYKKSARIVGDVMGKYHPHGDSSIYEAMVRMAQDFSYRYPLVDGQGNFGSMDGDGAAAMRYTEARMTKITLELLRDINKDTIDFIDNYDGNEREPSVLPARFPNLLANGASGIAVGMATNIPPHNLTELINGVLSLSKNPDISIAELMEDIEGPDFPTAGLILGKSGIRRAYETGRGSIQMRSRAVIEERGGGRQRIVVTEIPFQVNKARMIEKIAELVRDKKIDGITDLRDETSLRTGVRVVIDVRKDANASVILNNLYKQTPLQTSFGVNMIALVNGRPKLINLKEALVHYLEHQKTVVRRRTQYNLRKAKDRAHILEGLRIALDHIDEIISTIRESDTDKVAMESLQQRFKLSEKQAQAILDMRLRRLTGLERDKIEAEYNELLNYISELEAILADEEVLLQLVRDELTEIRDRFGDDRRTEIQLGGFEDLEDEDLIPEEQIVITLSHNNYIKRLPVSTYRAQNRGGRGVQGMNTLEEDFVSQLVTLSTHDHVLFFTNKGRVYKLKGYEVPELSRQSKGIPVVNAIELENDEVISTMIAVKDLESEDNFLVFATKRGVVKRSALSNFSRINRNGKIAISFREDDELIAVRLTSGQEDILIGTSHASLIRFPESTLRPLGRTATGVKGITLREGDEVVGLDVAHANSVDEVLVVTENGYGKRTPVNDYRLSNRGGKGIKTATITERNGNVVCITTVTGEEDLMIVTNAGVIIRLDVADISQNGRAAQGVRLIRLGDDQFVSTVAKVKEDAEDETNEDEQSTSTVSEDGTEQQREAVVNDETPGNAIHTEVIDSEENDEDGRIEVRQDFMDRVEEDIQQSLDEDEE
# T2 sequence (P0A0K8 whole entry): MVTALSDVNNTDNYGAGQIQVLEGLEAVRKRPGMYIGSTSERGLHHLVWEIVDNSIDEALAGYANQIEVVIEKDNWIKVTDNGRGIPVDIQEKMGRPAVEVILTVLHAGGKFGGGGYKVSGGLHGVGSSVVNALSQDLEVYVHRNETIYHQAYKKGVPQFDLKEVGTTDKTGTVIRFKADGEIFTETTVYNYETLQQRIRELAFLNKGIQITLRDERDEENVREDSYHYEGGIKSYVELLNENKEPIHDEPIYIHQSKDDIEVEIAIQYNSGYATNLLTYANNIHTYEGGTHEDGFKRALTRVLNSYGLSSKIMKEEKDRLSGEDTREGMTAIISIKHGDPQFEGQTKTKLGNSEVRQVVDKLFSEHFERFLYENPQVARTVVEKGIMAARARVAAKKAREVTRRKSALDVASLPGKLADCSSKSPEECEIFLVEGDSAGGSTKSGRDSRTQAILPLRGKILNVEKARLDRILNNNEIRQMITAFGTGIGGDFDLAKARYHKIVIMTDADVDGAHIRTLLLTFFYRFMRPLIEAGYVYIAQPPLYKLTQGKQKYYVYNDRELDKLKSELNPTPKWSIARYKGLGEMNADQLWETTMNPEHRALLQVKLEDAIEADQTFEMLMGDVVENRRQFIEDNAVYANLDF
# T4 sequence (P0C1U9 whole entry): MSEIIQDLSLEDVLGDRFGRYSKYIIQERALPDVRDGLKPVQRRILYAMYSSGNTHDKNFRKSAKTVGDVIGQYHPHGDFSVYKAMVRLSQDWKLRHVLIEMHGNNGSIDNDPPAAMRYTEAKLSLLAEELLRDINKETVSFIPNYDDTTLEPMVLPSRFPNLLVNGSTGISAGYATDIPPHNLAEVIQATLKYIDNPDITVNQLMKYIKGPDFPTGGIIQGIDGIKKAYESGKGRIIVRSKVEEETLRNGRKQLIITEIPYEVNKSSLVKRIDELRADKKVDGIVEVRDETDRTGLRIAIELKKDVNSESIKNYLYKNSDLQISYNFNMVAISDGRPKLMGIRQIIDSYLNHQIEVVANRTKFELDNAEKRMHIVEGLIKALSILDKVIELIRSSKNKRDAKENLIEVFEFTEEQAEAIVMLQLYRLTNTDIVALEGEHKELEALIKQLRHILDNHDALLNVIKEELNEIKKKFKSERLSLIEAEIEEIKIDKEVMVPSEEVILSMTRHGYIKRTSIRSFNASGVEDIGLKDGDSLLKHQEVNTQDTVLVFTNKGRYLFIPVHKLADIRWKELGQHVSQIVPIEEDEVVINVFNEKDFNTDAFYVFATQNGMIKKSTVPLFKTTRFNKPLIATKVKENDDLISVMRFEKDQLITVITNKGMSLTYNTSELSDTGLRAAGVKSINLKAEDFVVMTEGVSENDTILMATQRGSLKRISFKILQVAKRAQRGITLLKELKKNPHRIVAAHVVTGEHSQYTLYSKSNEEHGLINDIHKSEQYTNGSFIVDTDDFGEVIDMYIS
# T4 sequence (P0C1S7 whole entry): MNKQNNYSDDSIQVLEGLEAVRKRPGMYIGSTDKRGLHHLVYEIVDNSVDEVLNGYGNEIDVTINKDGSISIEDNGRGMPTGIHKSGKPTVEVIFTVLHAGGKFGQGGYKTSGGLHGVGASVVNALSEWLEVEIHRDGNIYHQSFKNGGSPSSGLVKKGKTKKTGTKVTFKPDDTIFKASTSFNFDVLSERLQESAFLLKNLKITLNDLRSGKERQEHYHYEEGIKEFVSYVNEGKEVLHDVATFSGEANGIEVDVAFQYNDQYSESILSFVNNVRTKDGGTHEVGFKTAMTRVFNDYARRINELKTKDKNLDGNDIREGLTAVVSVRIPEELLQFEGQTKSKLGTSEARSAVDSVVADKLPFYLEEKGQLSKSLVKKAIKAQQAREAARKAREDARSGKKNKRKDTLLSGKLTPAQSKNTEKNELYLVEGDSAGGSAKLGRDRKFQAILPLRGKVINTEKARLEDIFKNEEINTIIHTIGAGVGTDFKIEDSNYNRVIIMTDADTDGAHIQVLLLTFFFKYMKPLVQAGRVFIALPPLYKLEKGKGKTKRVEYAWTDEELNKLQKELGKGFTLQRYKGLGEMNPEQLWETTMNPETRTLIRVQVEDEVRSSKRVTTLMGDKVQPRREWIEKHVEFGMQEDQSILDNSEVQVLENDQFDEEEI
SMILES,IC50 (E. coli DNA gyrase),"MIC [1, 8]",MIC (E. coli ATCC 25922),MIC (E. faecium (ATCC 35667); [9]),"MIC [2, 10]",MIC (P. aeruginosa ATCC 27853),MIC (S. aureus ATCC 29213),"MIC [3, 11]",remaining activity at 10 µM (E. coli topoisomerase IV),"remaining activity at 10 µM [4, 12]",remaining activity at 1 µM (E. coli DNA gyrase; [13]),also measured
"Cl.N[C@@H]1CCN(c2cc(C(=O)NCC(=O)O)ccc2NC(=O)c2cc(Br)c(Br)[nH]2)C1 [Example 37, (R)-1-(5-((Carboxymethyl)carbamoyl)-2-(4,5-dibromo-1H-pyrrole-2-carboxamido)phenyl)pyrrolidin-3-aminium chloride]",2380 nM,≥ 64 µg/mL,≥ 64 µg/mL,≥ 64 µg/mL,≥ 64 µg/mL,≥ 64 µg/mL,≥ 64 µg/mL,≥ 64 µg/mL,–,–,–,remaining activity at 10 µM (S. aureus DNA gyrase): 78%
"Cc1[nH]c(C(=O)Nc2ccc(C(=O)NCC(=O)O)cc2N2CCNCC2)c(Cl)c1Cl.Cl [Example 36, 4-(5-((Carboxymethyl)carbamoyl)-2-(3,4-dichloro-5-methyl-1H-pyrrole-2-carboxamido)phenyl)piperazin-1-ium chloride]",40.3 nM,≥ 64 µg/mL,≥ 64 µg/mL,≥ 64 µg/mL,≥ 64 µg/mL,≥ 64 µg/mL,≥ 64 µg/mL,≥ 64 µg/mL,-43%,–,–,"IC50 (S. aureus DNA gyrase): 621 nM; IC50 ([4]; S. aureus topo IV, read-out: IC50): 4.19 µM"
"Cl.N[C@H]1CCN(c2cc(C(=O)NCC(=O)O)ccc2NC(=O)c2cc(Br)c(Br)[nH]2)C1 [Example 38, (S)-1-(5-((Carboxymethyl)carbamoyl)-2-(4,5-dibromo-1H-pyrrole-2-carboxamido)phenyl)pyrrolidin-3-aminium chloride]",35.7 nM,≥ 64 µg/mL,≥ 64 µg/mL,≥ 64 µg/mL,≥ 64 µg/mL,≥ 64 µg/mL,≥ 64 µg/mL,≥ 64 µg/mL,84%,91%,–,remaining activity at 10 µM (S. aureus DNA gyrase): 46%
"Cc1[nH]c(C(=O)Nc2ccc(C(=O)O)cc2N2CCC[C@H](N)C2)c(Cl)c1Cl.Cl [Example 14, (S)-1-(5-carboxy-2-(3,4-dichloro-5-methyl-1H-pyrrole-2-carboxamido)phenyl)piperidin-3-aminium chloride]",–,≥ 64 µg/mL,≥ 64 µg/mL,≥ 64 µg/mL,≥ 64 µg/mL,≥ 64 µg/mL,≥ 64 µg/mL,≥ 64 µg/mL,–,–,-2%,"remaining activity at 0.1 µM (E. coli DNA gyrase; 0.1 μM compound, read-out: RA (residual activity of the enzyme)): 52%"
"Cc1[nH]c(C(=O)Nc2ccc(-n3nn[nH]c3=O)cc2N2CCC(N)CC2)c(Cl)c1Cl.Cl [Example 23, 1-(2-(3,4-Dichloro-5-methyl-1H-pyrrole-2-carboxamido)-5-(5-oxo-4,5-dihydro-1H-tetrazol-1-yl)phenyl)piperidin-4-aminium chloride]",3.96 nM,–,≥ 32 µg/mL,–,–,≥ 32 µg/mL,≥ 32 µg/mL,–,–,–,–,IC50 (S. aureus DNA gyrase): 216 nM; IC50 (E. coli topoisomerase IV; read-out: IC50): 11.5 µM; IC50 [4]: 6.2 µM; MIC (A. baumannii ATCC 17978): ≥ 32 µg/mL; MIC (E. faecalis ATCC 29212): ≥ 32 µg/mL; MIC (E. faecium ATCC 700221): ≥ 32 µg/mL; MIC [5]: ≥ 32 µg/mL; MIC (K. pneumoniae ATCC 10031): ≥ 32 µg/mL; MIC [6]: ≥ 32 µg/mL; MIC [7]: ≥ 32 µg/mL
"Cc1[nH]c(C(=O)Nc2ccc(-c3nnn[nH]3)cc2N2CCOCC2)c(Cl)c1Cl [Example 10, 3,4-Dichloro-5-methyl-N-(2-morpholino-4-(2H-tetrazol-5-yl)phenyl)-1H-pyrrole-2-carboxamide]",44.5 nM,≥ 64 µg/mL,≥ 64 µg/mL,10 µg/mL,≥ 64 µg/mL,≥ 64 µg/mL,≥ 64 µg/mL,≥ 64 µg/mL,–,–,–,"remaining activity at 0.1 µM ([4]; S. aureus topo IV, 0.1 μM compound, read-out: RA (residual activity of the enzyme)): 101%; remaining activity at 1 µM ([4]; S. aureus topo IV, 1 μM compound, read-out: RA (residual activity of the enzyme)): 7%; MIC (A. baumannii ATCC 17978): ≥ 64 µg/mL; MIC (E. faecium ATCC 700221): ≥ 64 µg/mL; MIC [5]: ≥ 64 µg/mL; MIC (K. pneumoniae ATCC 10031): ≥ 64 µg/mL; MIC [6]: ≥ 64 µg/mL"
"Cc1nnc(-c2ccc(NC(=O)c3[nH]c(C)c(Cl)c3Cl)c(OC(C)C)c2)o1 [Example 21, 3,4-Dichloro-N-(2-isopropoxy-4-(5-methyl-1,3,4-oxadiazol-2-yl)phenyl)-5-methyl-1H-pyrrole-2-carboxamide]",–,≥ 64 µg/mL,≥ 64 µg/mL,≥ 64 µg/mL,≥ 64 µg/mL,≥ 64 µg/mL,≥ 64 µg/mL,≥ 64 µg/mL,–,–,95%,–
"Cl.O=C(O)CNC(=O)c1ccc(NC(=O)c2cc(Br)c(Br)[nH]2)c(N2CCNCC2)c1 [Example 39, 4-(5-((Carboxymethyl)carbamoyl)-2-(4,5-dibromo-1H-pyrrole-2-carboxamido)phenyl)piperazin-1-ium chloride]",841 nM,≥ 64 µg/mL,≥ 64 µg/mL,≥ 64 µg/mL,≥ 64 µg/mL,≥ 64 µg/mL,≥ 64 µg/mL,≥ 64 µg/mL,97%,73%,–,–
"Cc1[nH]c(C(=O)Nc2ccc(C(=O)O)cc2N2CCNCC2)c(Cl)c1Cl [Example 12, 4-(5-Carboxy-2-(3,4-dichloro-5-methyl-1H-pyrrole-2-carboxamido)phenyl)piperazin-1-ium chloride]",–,–,≥ 64 µg/mL,–,–,≥ 64 µg/mL,≥ 64 µg/mL,–,-18%,-17%,67%,MIC [1]: ≥ 64 µg/mL; MIC (E. faecium (ATCC 35667)): ≥ 64 µg/mL; MIC [2]: ≥ 64 µg/mL; MIC [3]: ≥ 64 µg/mL
